Test results as given in PubChem BioAssay AID330 (DTP/NCI, 2004).
Values joined by “and” are separate entries in the source; they are usually repeats but may differ in a detail not shown here. Identical values can stand only once. Inconclusive results and toxic doses are left out.

Tested on: P388 leukemia ip, CD2F1 mice, survival T/C
Assay: NCI In Vivo Anticancer Drug Screen. Data for tumor model P388 Leukemia (intraperitoneal) in CD2F1 (CDF1) mice
Details: endpoint: median survival time, higher = longer survival
Procedure, shortened: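 Mice carrying the transplanted tumor received test compound or vehicle. Survival was recorded in each group, and the value is the treated-group measurement divided by that of the vehicle-treated control group.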

[1] = dose: 50.0 mg/kg/injection, schedule: Q01DX005 (ip), vehicle: Klucel (hydroxypropylcellulose) (HPC)
[2] = dose: 100.0 mg/kg/injection, schedule: Q01DX005 (ip), vehicle: Klucel (hydroxypropylcellulose) (HPC)
[3] = dose: 6.25 mg/kg/injection, schedule: Q01DX009 (ip), vehicle: Klucel (hydroxypropylcellulose) (HPC)
[4] = dose: 12.5 mg/kg/injection, schedule: Q01DX009 (ip), vehicle: Klucel (hydroxypropylcellulose) (HPC)
[5] = dose: 25.0 mg/kg/injection, schedule: Q01DX009 (ip), vehicle: Klucel (hydroxypropylcellulose) (HPC)
[6] = dose: 50.0 mg/kg/injection, schedule: Q01DX005 (ip), vehicle: saline with Tween-80
[7] = dose: 100.0 mg/kg/injection, schedule: Q01DX005 (ip), vehicle: saline with Tween-80
[8] = dose: 200.0 mg/kg/injection, schedule: Q01DX005 (ip), vehicle: saline with Tween-80
[9] = dose: 50.0 mg/kg/injection, schedule: Q01DX009 (ip), vehicle: Klucel (hydroxypropylcellulose) (HPC)
[10] = dose: 100.0 mg/kg/injection, schedule: Q01DX009 (ip), vehicle: Klucel (hydroxypropylcellulose) (HPC)
[11] = dose: 60.0 mg/kg/injection, schedule: Q01DX005 (ip), vehicle: Klucel (hydroxypropylcellulose) (HPC)
[12] = dose: 120.0 mg/kg/injection, schedule: Q01DX005 (ip), vehicle: Klucel (hydroxypropylcellulose) (HPC)
[13] = dose: 240.0 mg/kg/injection, schedule: Q01DX005 (ip), vehicle: Klucel (hydroxypropylcellulose) (HPC)

With `CN1N=C(c2ccccc2)N=P12N=C(c1ccccc1)NN2C` (stereo not drawn) the T/C (dose: 60.0 mg/kg/injection, schedule: Q01DX005 (ip), vehicle: saline) was 94 % of control, the T/C (dose: 120.0 mg/kg/injection, schedule: Q01DX005 (ip), vehicle: saline) was 102 % of control and the T/C (dose: 240.0 mg/kg/injection, schedule: Q01DX005 (ip), vehicle: saline) was 103 % of control.

In the case of `NC(N)=N/N=C1/C=C2C/C(=N\N=C(N)N)C=C2C1`, the T/C [1] is reported as 106 % of control and the T/C [2] is reported as 104 % of control.

`CC1(C)C/C(=N/NC(N)=S)C(=NO)/C(=N\NC(N)=S)C1` was tested, and the T/C (dose: 60.0 mg/kg/injection, schedule: Q01DX005 (ip), vehicle: saline with Tween-80) was 123 % of control, the T/C (dose: 120.0 mg/kg/injection, schedule: Q01DX005 (ip), vehicle: saline with Tween-80) was 110 % of control and the T/C (dose: 240.0 mg/kg/injection, schedule: Q01DX005 (ip), vehicle: saline with Tween-80) was 113 % of control.

For `CCOC(=O)N1CCc2cc(OC)c(OC)cc2/C1=C/c1cc(OC)c(OC)cc1Br`, the T/C (dose: 12.5 mg/kg/injection, schedule: Q01DX009 (ip), vehicle: other) was 94 % of control, the T/C (dose: 25.0 mg/kg/injection, schedule: Q01DX009 (ip), vehicle: other) was 96 % of control and the T/C (dose: 50.0 mg/kg/injection, schedule: Q01DX009 (ip), vehicle: other) was 96 % of control. For the same compound, the T/C (dose: 100.0 mg/kg/injection, schedule: Q01DX009 (ip), vehicle: other) was 93 % of control and the T/C (dose: 200.0 mg/kg/injection, schedule: Q01DX009 (ip), vehicle: other) was 93 % of control.

`O=[N+]([O-])c1cnccc1Nc1ccncc1` was tested, and the T/C (dose: 100.0 mg/kg/injection, schedule: Q01DX001 (ip), vehicle: saline with Tween-80) was 100 % of control and the T/C (dose: 200.0 mg/kg/injection, schedule: Q01DX001 (ip), vehicle: saline with Tween-80) was 100 % of control.

In the case of `Cc1c(N)nc([C@H](CC(N)=O)NC[C@H](N)C(N)=O)nc1C(=O)N[C@H](C(=O)N[C@H](C)[C@@H](O)[C@H](C)C(=O)N[C@H](C(=O)NCCc1nc(-c2nc(C(=O)NCCC[S+](C)C)cs2)cs1)[C@@H](C)O)C(OC1OC(CO)C(O)C(O)C1OC1OC(CO)C(O)C(OC(N)=O)C1O)c1cnc[nH]1` (stereo partly drawn), the T/C (dose: 3.13 mg/kg/injection, schedule: Q01DX009 (ip), vehicle: Klucel (hydroxypropylcellulose) (HPC)) is reported as 121 % of control, the T/C (dose: 3.5 mg/kg/injection, schedule: Q01DX009 (ip), vehicle: saline) is reported as 100 % of control and the T/C (dose: 3.6 mg/kg/injection, schedule: Q01DX009 (ip), vehicle: saline) is reported as 117 % of control. The T/C (dose: 4.0 mg/kg/injection, schedule: Q04DX003 (ip), vehicle: saline) was 115 % of control, the T/C (dose: 5.3 mg/kg/injection, schedule: Q01DX009 (ip), vehicle: saline) was 107 % of control and 114 % of control and the T/C [3] was 123 % of control. For the same compound, the T/C (dose: 8.0 mg/kg/injection, schedule: Q04DX003 (ip), vehicle: saline) was 122 % of control, the T/C (dose: 12.0 mg/kg/injection, schedule: Q01DX009 (ip), vehicle: saline) was 106 % of control and 121 % of control and the T/C [4] was 121 % of control. For the same compound, the T/C (dose: 16.0 mg/kg/injection, schedule: Q04DX003 (ip), vehicle: saline) was 121 % of control and the T/C [5] was 94 % of control.

In the case of `C(=C/c1cc2ccc(C3=NCCN3)cc2o1)/c1cc2ccc(C3=NCCN3)cc2[nH]1`, the T/C (dose: 50.0 mg/kg/injection, schedule: Q04DX003 (ip), vehicle: suspension in saline) is reported as 114 % of control, the T/C (dose: 100.0 mg/kg/injection, schedule: Q04DX003 (ip), vehicle: suspension in saline) is reported as 158 % of control and 164 % of control and the T/C (dose: 200.0 mg/kg/injection, schedule: Q04DX003 (ip), vehicle: suspension in saline) is reported as 298 % of control.

With `C=C1C(=O)C23C(OC(=O)CCCCCCCCC)C1CCC2C12COC3(O)C(O)C1C(C)(C)CCC2O` (stereo not drawn) the T/C (dose: 3.75 mg/kg/injection, schedule: Q01DX009 (ip), vehicle: saline with Tween-80) was 103 % of control, the T/C (dose: 7.5 mg/kg/injection, schedule: Q01DX009 (ip), vehicle: saline with Tween-80) was 98 % of control and the T/C (dose: 15.0 mg/kg/injection, schedule: Q01DX009 (ip), vehicle: saline with Tween-80) was 96 % of control. The T/C (dose: 30.0 mg/kg/injection, schedule: Q01DX009 (ip), vehicle: saline with Tween-80) was 106 % of control.

With `O=c1oc2c(c(N(c3ccccc3)c3ccccc3)c1Cl)CCc1nc(-c3ccccc3)sc1-2` the T/C [6] was 91 % of control, the T/C [7] was 94 % of control and the T/C [8] was 88 % of control.

With `O=C(Nc1nc(-c2ccccc2)cs1)OCC(Cl)(Cl)Cl` the T/C [6] was 93 % of control, the T/C [7] was 91 % of control and the T/C [8] was 96 % of control.

`CCN1CCC(=C(c2ccccc2)c2ccccc2)C1` was tested, and the T/C [3] was 102 % of control, the T/C [4] was 102 % of control and the T/C [5] was 100 % of control. For the same compound, the T/C [9] was 110 % of control and the T/C [10] was 108 % of control.

`O=C(Cc1ccc(C2=NCCN2)cc1[N+](=O)[O-])c1ccc(C2=NCCN2)cc1` was tested, and the T/C (dose: 0.39 mg/kg/injection, schedule: Q01DX005 (ip), vehicle: saline) was 97 % of control, the T/C (dose: 0.79 mg/kg/injection, schedule: Q01DX005 (ip), vehicle: saline) was 101 % of control and the T/C (dose: 1.56 mg/kg/injection, schedule: Q01DX005 (ip), vehicle: saline) was 101 % of control and 87 % of control. For the same compound, the T/C (dose: 6.25 mg/kg/injection, schedule: Q01DX005 (ip), vehicle: saline) was 106 % of control and 87 % of control.

For `C=C1CC2(CCCC3(C2)OCCO3)OC1=O` (stereo not drawn), the T/C [1] was 95 % of control, the T/C [2] was 95 % of control and the T/C (dose: 200.0 mg/kg/injection, schedule: Q01DX005 (ip), vehicle: Klucel (hydroxypropylcellulose) (HPC)) was 106 % of control.

For `CCOC(=O)C1C(c2ccc(OC)cc2)c2cc3c(cc2OC1(C)N1CCCC1)OCO3` (stereo not drawn), the T/C [11] was 98 % of control, the T/C [12] was 96 % of control and the T/C [13] was 93 % of control.

For `O=C(NC1(OC(=O)c2ccc(Cl)cc2)CC1)c1ccc(Cl)cc1`, the T/C [11] was 103 % of control, the T/C [12] was 104 % of control and the T/C [13] was 89 % of control.

`COc1cc2c(cc1O)c[n+](C)c1c3cc(OC)c(OC)cc3ccc21` was tested, and the T/C (dose: 7.8 mg/kg/injection, schedule: Q01DX009 (ip), vehicle: other) was 107 % of control, the T/C (dose: 31.3 mg/kg/injection, schedule: Q01DX009 (ip), vehicle: other) was 122 % of control and the T/C (dose: 62.5 mg/kg/injection, schedule: Q01DX009 (ip), vehicle: other) was 120 % of control. For the same compound, the T/C (dose: 125.0 mg/kg/injection, schedule: Q01DX009 (ip), vehicle: other) was 120 % of control.

`CC1(C)OS(=O)(=O)C=C1Br` was tested, and the T/C (dose: 100.0 mg/kg/injection, schedule: Q04DX003 (ip), vehicle: saline) was 96 % of control, the T/C (dose: 200.0 mg/kg/injection, schedule: Q04DX003 (ip), vehicle: saline) was 110 % of control and the T/C (dose: 400.0 mg/kg/injection, schedule: Q04DX003 (ip), vehicle: saline) was 103 % of control.

With `O=C(Oc1ccccc1)c1cc2ccccc2cc1O` the T/C (dose: 6.25 mg/kg/injection, schedule: Q01DX009 (ip), vehicle: saline) was 100 % of control, the T/C (dose: 12.5 mg/kg/injection, schedule: Q01DX009 (ip), vehicle: saline) was 103 % of control and the T/C (dose: 25.0 mg/kg/injection, schedule: Q01DX009 (ip), vehicle: saline) was 100 % of control.

With `COc1ccc(N=Nc2nc(N)c(C(N)=O)[nH]2)cc1` the T/C (dose: 100.0 mg/kg/injection, schedule: Q04DX003 (ip), vehicle: Klucel (hydroxypropylcellulose) (HPC)) was 100 % of control, the T/C (dose: 200.0 mg/kg/injection, schedule: Q04DX003 (ip), vehicle: Klucel (hydroxypropylcellulose) (HPC)) was 103 % of control and the T/C (dose: 400.0 mg/kg/injection, schedule: Q04DX003 (ip), vehicle: Klucel (hydroxypropylcellulose) (HPC)) was 106 % of control.

For `CCOC(=O)c1c(C(=O)OCC)c(C)n(/N=N/n2c(C)c(C(=O)OCC)c(C(=O)OCC)c2C)c1C`, the T/C [1] was 103 % of control and the T/C [2] was 87 % of control.

With `CN1CCN(C)C1=Nc1ccccc1/C=C/C=C1C(=O)N(C)C(=O)N(C)C1=O` the T/C (dose: 25.0 mg/kg/injection, schedule: Q04DX002 (ip), vehicle: saline with Tween-80) was 114 % of control, the T/C (dose: 50.0 mg/kg/injection, schedule: Q04DX002 (ip), vehicle: saline with Tween-80) was 106 % of control and the T/C (dose: 100.0 mg/kg/injection, schedule: Q04DX002 (ip), vehicle: saline with Tween-80) was 123 % of control.

For `CC(CC(=O)c1ccccc1)C(Sc1ccccc1)(Sc1ccccc1)Sc1ccccc1` (stereo not drawn), the T/C [9] was 93 % of control, the T/C [10] was 90 % of control and the T/C (dose: 200.0 mg/kg/injection, schedule: Q01DX009 (ip), vehicle: Klucel (hydroxypropylcellulose) (HPC)) was 89 % of control.
